The source of these data is patent publication US20230141101A1, “PDE4 INHIBITOR COMPOUND AND MEDICAL USE THEREOF” (Suzhou Longbotai Pharmaceuticals Co., Ltd., priority 2020, published 2023).

Common to all, as to format: biochemical
What all share (settings): 20 nM

One experiment addresses T1, PDE4A1A (Homo sapiens, UniProt P27815).
T1 construct: purchased BPS 60040
Briefly: PDE4 inhibitory activity assay (FAM-cAMP enzymatic reaction), PDE4A1A. On the procedure:
(§1) The compounds of the present disclosure were tested for their inhibitory activity (IC50 value) against PDE4A1A, PDE4B1, and PDE4D2.
(§2) Positive compound: Trequinsin (Sigma, Cat No. T20S7).
(§3) Instrument: Wallac Victor Muti-lable counter (Pekin Elmer) Steps of assay:
(§4) PDE enzymatic reaction; • 1) PDE was dissolved in 1× reaction solution to prepare 2× enzyme solution; • 2) FAM-cAMP was dissolved in 1× reaction solution to prepare 2× substrate solution; • 3) Corresponding volume of the compound in DMSO was transferred to the reaction plate through Echo 550; • 4) 2× enzyme solution was added into the corresponding wells of the reaction plate and incubated with the compound solution for 15 minutes at room temperature; • 5) 2× substrate solution was added into the corresponding well of the reaction plate to initiate the reaction; • 6) After the reaction plate was incubated at room temperature for 30 min, the reaction was terminated by adding reaction stopping solution. The reaction plate was incubated at room temperature for another 60 minutes;
(§5) Inhibition rates were calculated with Excel; and IC50 for each compound was calculated with Graphpad prism.

For a further experiment, the target named is T2, PDE4B1 (Homo sapiens, UniProt Q07343).
T2 construct: purchased BPS 60041
The experiment in a line: PDE4 inhibitory activity assay (FAM-cAMP enzymatic reaction), PDE4B1. As to the method:
as §1, §2, §3, §4, §5

The target in the next experiment is PDE4D2 (Homo sapiens, UniProt Q08499). Briefly: PDE4 inhibitory activity assay (FAM-cAMP enzymatic reaction), PDE4D2. As to the method: as §1, §2, §3, §4, §5
PDE4D2, sequence (Q08499 303-809): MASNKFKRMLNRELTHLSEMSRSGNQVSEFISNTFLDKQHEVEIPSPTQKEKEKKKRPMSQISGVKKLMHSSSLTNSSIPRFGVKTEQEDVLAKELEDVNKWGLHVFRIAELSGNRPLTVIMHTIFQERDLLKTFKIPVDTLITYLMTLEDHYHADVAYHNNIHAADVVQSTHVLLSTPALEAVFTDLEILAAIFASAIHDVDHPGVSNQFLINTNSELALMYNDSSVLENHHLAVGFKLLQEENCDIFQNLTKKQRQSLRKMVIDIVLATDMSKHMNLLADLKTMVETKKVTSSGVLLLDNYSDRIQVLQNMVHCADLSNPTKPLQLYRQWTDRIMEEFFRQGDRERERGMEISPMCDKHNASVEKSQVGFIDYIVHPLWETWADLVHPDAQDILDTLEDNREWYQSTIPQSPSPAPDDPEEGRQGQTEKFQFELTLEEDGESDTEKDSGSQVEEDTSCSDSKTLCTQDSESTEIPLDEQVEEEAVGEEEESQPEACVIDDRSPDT

T2 sequence (Q07343 whole entry): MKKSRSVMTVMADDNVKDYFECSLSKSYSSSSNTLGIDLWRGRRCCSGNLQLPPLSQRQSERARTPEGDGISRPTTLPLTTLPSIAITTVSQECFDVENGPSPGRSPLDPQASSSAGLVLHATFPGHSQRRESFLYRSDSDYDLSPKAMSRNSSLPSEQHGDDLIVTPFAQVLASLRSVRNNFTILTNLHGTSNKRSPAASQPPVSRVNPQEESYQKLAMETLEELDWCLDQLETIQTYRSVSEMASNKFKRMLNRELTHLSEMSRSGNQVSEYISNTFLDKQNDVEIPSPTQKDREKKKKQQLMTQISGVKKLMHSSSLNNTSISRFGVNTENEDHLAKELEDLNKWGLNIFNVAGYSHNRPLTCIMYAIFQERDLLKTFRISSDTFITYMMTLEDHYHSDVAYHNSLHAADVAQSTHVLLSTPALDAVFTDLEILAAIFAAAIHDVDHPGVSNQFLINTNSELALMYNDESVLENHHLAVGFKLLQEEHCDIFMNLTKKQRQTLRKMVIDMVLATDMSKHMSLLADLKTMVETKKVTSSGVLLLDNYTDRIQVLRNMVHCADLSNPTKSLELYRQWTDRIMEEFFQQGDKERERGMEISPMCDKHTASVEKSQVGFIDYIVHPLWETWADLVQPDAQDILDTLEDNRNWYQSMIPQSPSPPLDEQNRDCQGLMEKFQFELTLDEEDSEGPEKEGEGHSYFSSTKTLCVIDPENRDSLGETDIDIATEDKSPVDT
T1 sequence (P27815 1-647 isoform P27815-4): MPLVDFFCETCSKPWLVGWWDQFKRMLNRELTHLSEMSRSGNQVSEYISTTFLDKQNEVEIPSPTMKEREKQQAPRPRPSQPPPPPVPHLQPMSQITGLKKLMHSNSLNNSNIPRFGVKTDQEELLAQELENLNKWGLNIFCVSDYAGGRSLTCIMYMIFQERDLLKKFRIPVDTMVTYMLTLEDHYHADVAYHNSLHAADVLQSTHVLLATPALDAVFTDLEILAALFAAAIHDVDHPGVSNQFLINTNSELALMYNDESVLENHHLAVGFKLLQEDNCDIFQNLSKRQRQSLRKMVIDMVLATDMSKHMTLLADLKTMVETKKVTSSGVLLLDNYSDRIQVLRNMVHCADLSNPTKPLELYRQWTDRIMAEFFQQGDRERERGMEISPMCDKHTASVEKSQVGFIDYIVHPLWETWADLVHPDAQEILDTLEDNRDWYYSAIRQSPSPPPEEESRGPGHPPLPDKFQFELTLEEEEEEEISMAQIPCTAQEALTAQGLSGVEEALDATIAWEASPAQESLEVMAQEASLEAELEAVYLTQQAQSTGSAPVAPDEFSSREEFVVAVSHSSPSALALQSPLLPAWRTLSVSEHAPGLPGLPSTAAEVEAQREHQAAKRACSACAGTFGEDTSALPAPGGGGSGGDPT

As to `CCOc1nc([C@@H](CS(C)(=O)=O)n2c(=O)[nH]c3c(C)c(-c4ccc(C)cc4F)cnc32)ccc1OC` [Ex. 40, (S)-6-(2-fluoro-4-methylphenyl)-3-(1-(6-ethoxy-5-methoxypyridin-2-yl)-2-(methylsulfonyl)ethyl)-7-methyl-1H-imidazo[4,5-b]pyridin-2(3H)-one], the “PDE4 A1 inhibitory effect at 20 nM” value at PDE4A1A is “+”. For the same compound, the “PDE4 B1 inhibitory effect at 20 nM” value on PDE4B1 is “+”. Moreover, at PDE4D2, the “PDE4 D2 inhibitory effect at 20 nM” value is “+”.

Turning to `CCOc1nc([C@@H](CS(C)(=O)=O)n2c(=O)[nH]c3c(C)c(-c4cc(OC)ccc4F)cnc32)ccc1OC` [Ex. 41, (S)-6-(2-fluoro-5-methoxyphenyl)-3-(1-(6-ethoxy-5-methoxypyridin-2-yl)-2-(methylsulfonyl)ethyl)-7-methyl-1H-imidazo[4,5-b]pyridin-2(3H)-one], at PDE4A1A, the “PDE4 A1 inhibitory effect at 20 nM” value was “+”. Further, the “PDE4 B1 inhibitory effect at 20 nM” value at PDE4B1 is “+”. On PDE4D2, the “PDE4 D2 inhibitory effect at 20 nM” value is recorded as “+”.

Turning to `CCOc1nc([C@@H](CS(C)(=O)=O)n2c(=O)[nH]c3c(C)c(-c4cccc(OC)c4F)cnc32)ccc1OC` [Ex. 42, (S)-6-(2-fluoro-3-methoxyphenyl)-3-(1-(6-ethoxy-5-methoxypyridin-2-yl)-2-(methylsulfonyl)ethyl)-7-methyl-1H-imidazo[4,5-b]pyridin-2(3H)-one], on PDE4A1A, the “PDE4 A1 inhibitory effect at 20 nM” value is listed as “+”. Further, the “PDE4 B1 inhibitory effect at 20 nM” value at PDE4B1 is “+”. For the same compound, the “PDE4 D2 inhibitory effect at 20 nM” value at PDE4D2 is given as “+”.

Take `CCOc1nc([C@@H](CS(C)(=O)=O)n2c(=O)[nH]c3c(C)c(-c4ccc(OC)cc4F)cnc32)ccc1OC` [Ex. 43, (S)-6-(2-fluoro-4-methoxyphenyl)-3-(1-(6-ethoxy-5-methoxypyridin-2-yl)-2-(methylsulfonyl)ethyl)-7-methyl-1H-imidazo[4,5-b]pyridin-2(3H)-one]: the “PDE4 A1 inhibitory effect at 20 nM” value on PDE4A1A is reported as “+”. Also, the “PDE4 B1 inhibitory effect at 20 nM” value at PDE4B1 is “+”. The “PDE4 D2 inhibitory effect at 20 nM” value on PDE4D2 was “+”.

Turning to `CCOc1nc([C@@H](CS(C)(=O)=O)n2c(=O)[nH]c3c(C)c(-c4cc(F)ccc4OC)cnc32)ccc1OC` [Ex. 44, (S)-6-(5-fluoro-2-methoxyphenyl)-3-(1-(6-ethoxy-5-methoxypyridin-2-yl)-2-(methylsulfonyl)ethyl)-7-methyl-1H-imidazo[4,5-b]pyridin-2(3H)-one], on PDE4A1A, the “PDE4 A1 inhibitory effect at 20 nM” value was “+”. Besides, the “PDE4 B1 inhibitory effect at 20 nM” value at PDE4B1 is given as “+”. The “PDE4 D2 inhibitory effect at 20 nM” value on PDE4D2 is given as “+”.

With `CCOc1nc([C@@H](CS(C)(=O)=O)n2c(=O)[nH]c3c(C)c(-c4ccc(F)cc4OC)cnc32)ccc1OC` [Ex. 45, (S)-6-(4-fluoro-2-methoxyphenyl)-3-(1-(6-ethoxy-5-methoxypyridin-2-yl)-2-(methylsulfonyl)ethyl)-7-methyl-1H-imidazo[4,5-b]pyridin-2(3H)-one], the “PDE4 A1 inhibitory effect at 20 nM” value at PDE4A1A is reported as “+”. For the same compound, the “PDE4 B1 inhibitory effect at 20 nM” value on PDE4B1 is listed as “+”. The “PDE4 D2 inhibitory effect at 20 nM” value at PDE4D2 is listed as “+”.

`CCOc1nc([C@@H](CS(C)(=O)=O)n2c(=O)[nH]c3c(C)c(-c4c(F)cccc4OC)cnc32)ccc1OC` [Ex. 46, (S)-6-(6-fluoro-2-methoxyphenyl)-3-(1-(6-ethoxy-5-methoxypyridin-2-yl)-2-(methylsulfonyl)ethyl)-7-methyl-1H-imidazo[4,5-b]pyridin-2(3H)-one]: at PDE4A1A, the “PDE4 A1 inhibitory effect at 20 nM” value is recorded as “+”. The “PDE4 B1 inhibitory effect at 20 nM” value at PDE4B1 is “+”. In addition, at PDE4D2, the “PDE4 D2 inhibitory effect at 20 nM” value is “+”.

Consider `CCOc1nc([C@H](CS(C)(=O)=O)n2c(=O)n(CC)c3c(C)c(-c4ccccc4)cnc32)ccc1OC` [Ex. 47, (R)-3-(1-(6-ethoxy-5-methoxypyridin-2-yl)-2-(methylsulfonyl)ethyl)-1-ethyl-7-methyl-6-phenyl-1H-imidazo[4,5-b]pyridin-2(3H)-one], for which, on PDE4A1A, the “PDE4 A1 inhibitory effect at 20 nM” value is “−”. Besides, the “PDE4 B1 inhibitory effect at 20 nM” value at PDE4B1 is “−”. The “PDE4 D2 inhibitory effect at 20 nM” value on PDE4D2 is reported as “−”.

With `CCOc1nc([C@@H](CS(C)(=O)=O)n2c(=O)n(CC)c3c(C)c(-c4ccc(F)cc4)cnc32)ccc1OC` [Ex. 48, (S)-3-(1-(6-ethoxy-5-methoxypyridin-2-yl)-2-(methylsulfonyl)ethyl)-1-ethyl-6-(4-fluorophenyl)-7-methyl-1H-imidazo[4,5-b]pyridin-2(3H)-one], at PDE4A1A, the “PDE4 A1 inhibitory effect at 20 nM” value is “+”. The “PDE4 B1 inhibitory effect at 20 nM” value at PDE4B1 is given as “+”. Also, the “PDE4 D2 inhibitory effect at 20 nM” value at PDE4D2 is “+”.

As for `CCOc1nc([C@H](CS(C)(=O)=O)n2c(=O)n(CC)c3c(C)c(-c4ccc(F)cc4)cnc32)ccc1OC` [Ex. 49, (R)-3-(1-(6-ethoxy-5-methoxypyridin-2-yl)-2-(methylsulfonyl)ethyl)-1-ethyl-6-(4-fluorophenyl)-7-methyl-1H-imidazo[4,5-b]pyridin-2(3H)-one], the “PDE4 A1 inhibitory effect at 20 nM” value on PDE4A1A is “−”. The “PDE4 B1 inhibitory effect at 20 nM” value on PDE4B1 is “−”. Moreover, on PDE4D2, the “PDE4 D2 inhibitory effect at 20 nM” value was “−”.

Turning to `CCOc1nc([C@@H](CS(C)(=O)=O)n2c(=O)n(CC)c3c(C)c(-c4ccccc4C)cnc32)ccc1OC` [Ex. 50, (S)-3-(1-(6-ethoxy-5-methoxypyridin-2-yl)-2-(methylsulfonyl)ethyl)-1-ethyl-7-methyl-6-(o-methylphenyl)-1H-imidazo[4,5-b]pyridin-2(3H)-one], on PDE4A1A, the “PDE4 A1 inhibitory effect at 20 nM” value is given as “+”. Further, the “PDE4 B1 inhibitory effect at 20 nM” value at PDE4B1 is on record as “+”. For the same compound, the “PDE4 D2 inhibitory effect at 20 nM” value at PDE4D2 is listed as “+”.

For the compound `CCOc1nc([C@@H](CS(C)(=O)=O)n2c(=O)n(CC(F)(F)F)c3c(C)c(-c4ccccc4F)cnc32)ccc1OC` [Ex. 51, (S)-3-(1-(6-ethoxy-5-methoxypyridin-2-yl)-2-(methylsulfonyl)ethyl)-6-(2-fluorophenyl)-7-methyl-1-(2,2,2-trifluoroethyl)-1H-imidazo[4,5-b]pyridin-2(3H)-one], the “PDE4 A1 inhibitory effect at 20 nM” value on PDE4A1A is “+”. In addition, the “PDE4 B1 inhibitory effect at 20 nM” value on PDE4B1 is on record as “+”. In addition, the “PDE4 D2 inhibitory effect at 20 nM” value at PDE4D2 is on record as “+”.

As to `CCOc1nc([C@H](CS(C)(=O)=O)n2c(=O)n(CC(F)(F)F)c3c(C)c(-c4ccccc4F)cnc32)ccc1OC` [Ex. 52, (R)-3-(1-(6-ethoxy-5-methoxypyridin-2-yl)-2-(methylsulfonyl)ethyl)-6-(2-fluorophenyl)-7-methyl-1-(2,2,2-trifluoroethyl)-1H-imidazo[4,5-b]pyridin-2(3H)-one], at PDE4A1A, the “PDE4 A1 inhibitory effect at 20 nM” value is “−”. For the same compound, the “PDE4 B1 inhibitory effect at 20 nM” value on PDE4B1 was “−”. For the same compound, the “PDE4 D2 inhibitory effect at 20 nM” value at PDE4D2 is given as “−”.

As to `CCOc1nc([C@@H](CS(C)(=O)=O)n2c(=O)n(CC(F)(F)F)c3c(C)c(-c4ccccc4)cnc32)ccc1OC` [Ex. 53, (S)-3-(1-(6-ethoxy-5-methoxypyridin-2-yl)-2-(methylsulfonyl)ethyl)-7-methyl-6-phenyl-1-(2,2,2-trifluoroethyl)-1H-imidazo[4,5-b]pyridin-2(3H)-one], the “PDE4 A1 inhibitory effect at 20 nM” value at PDE4A1A is “+”. Also, on PDE4B1, the “PDE4 B1 inhibitory effect at 20 nM” value is reported as “+”. Besides, the “PDE4 D2 inhibitory effect at 20 nM” value at PDE4D2 is on record as “+”.

For the compound `CCOc1nc([C@H](CS(C)(=O)=O)n2c(=O)n(CC(F)(F)F)c3c(C)c(-c4ccccc4)cnc32)ccc1OC` [Ex. 54, (R)-3-(1-(6-ethoxy-5-methoxypyridin-2-yl)-2-(methylsulfonyl)ethyl)-7-methyl-6-phenyl-1-(2,2,2-trifluoroethyl)-1H-imidazo[4,5-b]pyridin-2(3H)-one], on PDE4A1A, the “PDE4 A1 inhibitory effect at 20 nM” value is “−”. In addition, the “PDE4 B1 inhibitory effect at 20 nM” value at PDE4B1 is recorded as “−”. For the same compound, the “PDE4 D2 inhibitory effect at 20 nM” value on PDE4D2 was “−”.

Take `CCOc1nc([C@@H](CS(C)(=O)=O)n2c(=O)n(CC(F)(F)F)c3c(C)c(-c4ccccc4C)cnc32)ccc1OC` [Ex. 55, (S)-3-(1-(6-ethoxy-5-methoxypyridin-2-yl)-2-(methylsulfonyl)ethyl)-7-methyl-6-(o-methylphenyl)-1-(2,2,2-trifluoroethyl)-1H-imidazo[4,5-b]pyridin-2(3H)-one]: on PDE4A1A, the “PDE4 A1 inhibitory effect at 20 nM” value is on record as “+”. In addition, the “PDE4 B1 inhibitory effect at 20 nM” value at PDE4B1 is on record as “+”. Besides, on PDE4D2, the “PDE4 D2 inhibitory effect at 20 nM” value is listed as “+”.

Regarding `CCOc1nc([C@@H](CS(C)(=O)=O)n2c(=O)n(CC(F)F)c3c(C)c(-c4ccccc4F)cnc32)ccc1OC` [Ex. 56, (S)-1-(2,2-difluoroethyl)-3-(1-(6-ethoxy-5-methoxypyridin-2-yl)-2-(methylsulfonyl)ethyl)-6-(2-fluorophenyl)-7-methyl-1H-imidazo[4,5-b]pyridin-2(3H)-one], the “PDE4 A1 inhibitory effect at 20 nM” value on PDE4A1A is given as “+”. For the same compound, the “PDE4 B1 inhibitory effect at 20 nM” value at PDE4B1 is given as “+”. At PDE4D2, the “PDE4 D2 inhibitory effect at 20 nM” value was “+”.

Consider `CCOc1nc([C@@H](CS(C)(=O)=O)n2c(=O)n(CC(F)F)c3c(C)c(-c4ccccc4)cnc32)ccc1OC` [Ex. 57, (S)-1-(2,2-difluoroethyl)-3-(1-(6-ethoxy-5-methoxypyridin-2-yl)-2-(methylsulfonyl)ethyl)-7-methyl-6-phenyl-1H-imidazo[4,5-b]pyridin-2(3H)-one], for which the “PDE4 A1 inhibitory effect at 20 nM” value on PDE4A1A is “+”. The “PDE4 B1 inhibitory effect at 20 nM” value on PDE4B1 is “+”. For the same compound, the “PDE4 D2 inhibitory effect at 20 nM” value at PDE4D2 is given as “+”.

As for `CCOc1nc([C@@H](CS(C)(=O)=O)n2c(=O)n(CC(F)F)c3c(C)c(-c4ccc(F)cc4)cnc32)ccc1OC` [Ex. 58, (S)-1-(2,2-difluoroethyl)-3-(1-(6-ethoxy-5-methoxypyridin-2-yl)-2-(methylsulfonyl)ethyl)-6-(4-fluorophenyl)-7-methyl-1H-imidazo[4,5-b]pyridin-2(3H)-one], at PDE4A1A, the “PDE4 A1 inhibitory effect at 20 nM” value is listed as “+”. In addition, on PDE4B1, the “PDE4 B1 inhibitory effect at 20 nM” value is “+”. Further, the “PDE4 D2 inhibitory effect at 20 nM” value at PDE4D2 was “+”.
